# Experimental data published in PMC5913645, “Methyl phenlactonoates are efficient strigolactone analogs with simple structure” (Journal of Experimental Botany, 2017).
# Entries after “also recorded” stand apart in the source; their conditions may differ. Where two headings read alike, the source gives them in different places.
# Key:
# [1] = target: T1, OsD14 (Oryza sativa subsp. japonica, UniProt Q10QA5); test: In vitro hydrolysis assay, OsD14; assay type: biochemical, rice; settings: 10 µM substrate, 50 µg ml^−1 protein, 37 °C, HPLC
# T1 construct: made in house; host or cells: E. coli BL21 (DE3)
# T1 sequence (Q10QA5 1-318): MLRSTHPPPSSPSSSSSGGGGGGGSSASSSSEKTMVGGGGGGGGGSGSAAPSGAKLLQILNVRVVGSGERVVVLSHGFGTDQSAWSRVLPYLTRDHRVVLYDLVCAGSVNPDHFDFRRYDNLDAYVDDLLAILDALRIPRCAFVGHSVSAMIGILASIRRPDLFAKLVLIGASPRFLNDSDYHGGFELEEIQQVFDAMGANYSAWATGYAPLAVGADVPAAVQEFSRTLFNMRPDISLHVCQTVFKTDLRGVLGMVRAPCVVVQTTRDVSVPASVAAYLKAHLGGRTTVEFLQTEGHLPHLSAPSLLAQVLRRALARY
# Source text: (§1) Striga hermonthica ShHTL7 cDNA was used, GenBank accession KR013127, kindly provided by Tsuyoshi Ota, The University of Tokyo, Japan. Arabidopsis D14 (AtD14) cDNA, GenBank accession AY097402, was synthesized and cloned into pUC57 (GenScript). ShHTL7 and OsD14 cDNAs were amplified by RT-PCR using the primers shown in Supplementary Table S2, digested with BamHI and XhoI, and ligated into BamHI/XhoI-digested pGEX-6P-1 expression vector (GE Healthcare). Integrity of plasmids was confirmed by sequencing (KAUST Bioscience Core Lab). The plasmids were then transformed into E. coli BL21 (DE3) cells. The cells were grown in LB broth containing ampicillin ([…]), incubated at 37 °C until OD600 of 0.6 and induced with 0.1 mM isopropyl-β-D-thiogalactopyranoside at 16 °C for 16 h. Harvested cells were resuspended in lysis buffer: 50 mM Tris–HCl (pH 8.0), 200 mM NaCl, 0.5% Tween-20 and 2 mM dithiothreitol (DTT). After sonication on ice for 10 min, the lysate was centrifuged at 75 000 g for 30 min at 4 °C. Supernatant was allowed to bind to glutathione–sepharose beads (GE Healthcare) for 2 h at 4 °C, washed 3 times with buffer (50 mM Tris-HCl (pH 8.0), 200 mM NaCl, 2 mM DTT), and eluted by cleaving the GST moiety with PreScission™ Protease (GE Healthcare) at 4 °C overnight. Eluted protein was further purified by gel filtration using a HiLoad 16/60 Superdex200 prep grade column (GE Healthcare) on an AKTA prime system (GE Healthcare) in gel filtration buffer (10 mM HEPES pH 7.5, 50 mM KCl and 2 mM DTT). Protein eluted as a sharp single peak and purity was judged by 4–15% SDS-PAGE (Bio-Rad). Purified protein was concentrated using an Amicon 10K filter unit (Merck Millipore) and stored at −80 °C until use. A similar expression and purification protocol was followed for OsD14 protein, except that OsD14 was eluted from glutathione resins using 0.2 mM reduced glutathione (Sigma-Aldrich) without cutting the GST tag.
# The hydrolysis of GR24 and MPs by ShHTL7/OsD14 was performed in a total volume of 0.5 ml of phosphate-buffered saline containing 10 µM of substrate. Purified ShHTL7/OsD14 was added at a concentration of 50 µg ml^−1 and incubated for the indicated time at 37 °C. After adding 1-indanol (10 µl of a 2.5 mg ml^−1 solution in methanol), as internal standard, solutions were filtered and transferred to HPLC vials. Hydrolysis of substrates was monitored by HPLC analysis using a Zorbax Eclipse Plus C18 column (3.5 µm, 2.1 × 150 mm), eluted by a gradient from 10% to 90% acetonitrile in water within 15 min, keeping the final condition for 4 min. […] Eluted compounds were detected using a diode array detector. Amounts of remaining substrates were determined by calculating corresponding peaks, in comparison with an internal standard.
# [2] = tested on: rice d10 mutant; test: Rice micro tillering bioassay, d10 mutant; assay type: in vivo; settings: for EC50: Oryza sativa, read-out: EC50 for tillering inhibition of the rice d10 mutant
# Procedure: Rice seeds (WT, d3, d10) were surface-sterilized by washing with 70% ethanol for 1 min and then with 2.5% sodium hypochlorite for 15 min. Seeds were then rinsed thoroughly with sterile MilliQ water and incubated in water for 2 d at 30 °C in the dark. Pre-germinated seeds were transferred to filter papers containing half-strength MS medium in 90 mm Petri dishes and incubated at 30 °C under fluorescent white light (130–180 μmol m^−2 s^−1) for 1 week. Seven-day-old seedlings were transferred to 50 ml falcon tubes (one seedling per tube) containing modified half-strength Hoagland nutrient solution and grown in greenhouse. Plants were treated with MPs at 2.5 μM to 2.5 × 10^–7 μM, using GR24 as positive control. The compounds were applied six times, twice a week. Number of tillers per plant, plant height and fresh biomass were measured at final harvest.
# Statistical analyses were carried out using the statistical software package R (version 3.2.2). Dose–response curves and half-maximum effective concentrations (EC50) were calculated to determine optimum amount of MPs. The synthetic strigolactone analog GR24 was used as reference to estimate efficacy of selected compounds. EC50 and estimated response were calculated using the drc package (https://cran.r-project.org/web/packages/drc/) with a four parameter logistic curve (dose–response curve) ([Ritz and Streibig, 2005]).
# [3] = target: T1, OsD14; test: Intrinsic tryptophan fluorescence assay, OsD14; assay type: binding, rice
# Source text: as §1
# ShHTL7/D14 tryptophans were excited at 280 nm and emission intensity was measured at 333 nm. ShHTL7/D14 (10 μM) was incubated at various dilutions (0.2, 0.4, 0.8, 1.6, 3.12, 6.25, 12.5, 25, and 50 μM) of GR24 and MPs for 30 min at room temperature before measurement. Each concentration point was measured in triplicate. Emitted fluorescence was monitored using a spectraMaxi3 plate reader (Molecular Devices) in 96-well black plates. Changes in tryptophan fluorescence intensity occur due to conformational changes in protein when it is bound to ligand; differences in fluorescence intensity were recorded and analysed. Data were normalized and dissociation coefficient (Kd) values were calculated by fitting to a binding saturation single-site model with Prism 6 (GraphPad).
# [4] = Chemical stability in aqueous solution (UHPLC); assay type: physicochemical; settings: aqueous solution pH 6.8, 21 °C, 50 μg ml^−1, monitored at 24 h intervals up to 3 weeks
# Procedure: Aqueous solutions of MPs (50 μg ml^−1; pH 6.8) were incubated at 21 °C in amber HPLC vials (adapted from [de Saint Germain et al., 2016]). For sample preparation, 50 μl of an acetone solution (1 mg ml^−1) was diluted to the final concentration with methanol (425 μl), water (500 μl) and 25 μl of 1-indanol (1.0 mg ml^−1 solution in acetone) as internal standard. […] Compounds eluted from the column were detected with a diode array detector. The relative quantity of remaining (non-degraded) product was determined by comparison with the internal standard. Stability was monitored at 24 h intervals up to 3 weeks.
# [5] = 10 μM protein, 30 min, room temperature, read-out: Kd, OsD14
SMILES,hydrolysis rate by OsD14 (rank order) [1],"number of tillers per plant, d10 mutant ([2]; 2.5 μM, hydroponic culture, Mock four tillers per plant)",EC50 [2] [nM],Kd [3] [nM],stability in comparison with GR24 [4],"Kd [3, 5] [nM]","growth, senescence symptoms and biomass of rice seedlings ([2]; 2.5 μM)"
"CC1=CC(OC=C2C(=O)OC3c4ccccc4CC23)OC1=O (centres unmarked) [GR24, reference compound]","highest hydrolysis rate with MP1, followed by MP7, GR24, and finally MP3",one,48.3,4170 ± 320,,,
"COC(=O)/C(=C/OC1C=C(C)C(=O)O1)c1ccc([N+](=O)[O-])cc1 (centres unmarked) [MP1, (E)-methyl 3-(4-methyl-5-oxo-2,5-dihydrofuran-2-yloxy)-2-(4-nitrophenyl)acrylate]","highest hydrolysis rate with MP1, followed by MP7, GR24, and finally MP3",,242,,slightly less stable than GR24,3520 ± 350,
"COC(=O)/C(=C/OC1C=C(C)C(=O)O1)c1ccccc1 (centres unmarked) [MP3, (E)-methyl 3-(4-methyl-5-oxo-2,5-dihydrofuran-2-yloxy)-2-phenylacrylate]","highest hydrolysis rate with MP1, followed by MP7, GR24, and finally MP3",,2.98,,more stable than GR24,7460 ± 530,stunted the growth and caused senescence symptoms; also recorded: growth retardation and senescence
COC(=O)/C(=C/OC1C=C(C)C(=O)O1)c1ccc(Cl)cc1 (centres unmarked) [MP7],"highest hydrolysis rate with MP1, followed by MP7, GR24, and finally MP3",,25.4,,more stable than GR24,8740 ± 830,
